Experimental data: US9000008B2, “Amides of acetic and propionic acids” (Bayer Intellectual Property GmbH, priority 2002, dated 2015)
pKi: −log10 of the molar value. Counter-ions that a name gives are not always drawn.

Each compound was assayed against α7 nAChR (Rattus norvegicus (Rat), UniProt Q05941) (assay: [3H]-methyllycaconitine binding assay, rat brain membranes). Settings: inhibition of [3H]-methyllycaconitine binding to rat brain membranes; Ki=IC50/(1+L/KD).
α7 nAChR, sequence (Q05941 23-502): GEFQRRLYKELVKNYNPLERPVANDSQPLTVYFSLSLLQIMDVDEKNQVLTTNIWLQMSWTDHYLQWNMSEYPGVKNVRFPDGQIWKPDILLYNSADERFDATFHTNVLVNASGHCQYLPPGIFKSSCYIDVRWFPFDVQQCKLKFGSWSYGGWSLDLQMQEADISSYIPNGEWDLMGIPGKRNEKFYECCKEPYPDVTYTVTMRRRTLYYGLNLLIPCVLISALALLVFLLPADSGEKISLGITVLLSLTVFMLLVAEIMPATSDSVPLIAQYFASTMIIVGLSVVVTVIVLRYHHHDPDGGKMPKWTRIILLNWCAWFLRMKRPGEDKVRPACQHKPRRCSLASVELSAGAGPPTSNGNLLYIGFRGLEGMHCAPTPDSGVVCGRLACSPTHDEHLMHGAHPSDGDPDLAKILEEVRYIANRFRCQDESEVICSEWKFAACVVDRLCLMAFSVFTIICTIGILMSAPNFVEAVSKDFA
Protocol: 1. Determination of the Affinity of Test Substances for α7 nAChR by Inhibition of [^3H]-Methyllycaconitine Binding to Rat Brain Membranes
The [^3H]-methyllycaconitine binding assay is a modification of the method described by Davies et al. (Neuropharmacol. 1999, 38, 679-690).
Rat brain tissue (hippocampus or whole brain) is homogenized in homogenization buffer (10% w/v). [0.32 M sucrose, 1 mM EDTA; 0.1 mM phenylmethylsulfonyl fluoride (PMSF), 0.01% (w/v) NaN3, pH 7.4, 4° C.] at 600 rpm in a glass homogenizer. The homogenate is centrifuged (1000×g, 4° C., 10 min) and the supernatant is removed. The pellet is resuspended (20% w/v) and the suspension is centrifuged (1000×g, 4° C., […]). The two supernatants are combined and centrifuged (15 000×g, 4° C., 30 min). The pellet obtained in this way is referred to as the P2 fraction.
The P2 pellet is washed twice with binding buffer (50 mM Tris-HCl, 1 mM MgCl2, 120 mM NaCl, 5 mM KCl, 2 mM CaCl2, pH 7.4), and centrifuged (15 000×g, 4° C., 30 min).
The P2 membranes are resuspended in binding buffer and incubated in a volume of 250 μl (amount of membrane protein 0.1-0.5 mg) in the presence of 1-5 nM [^3H]methyllycaconitine, 0.1% (w/v) BSA (bovine serum albumin) and various concentrations of the test substance at 21° C. for 2.5 h. The non-specific binding is determined by incubation in the presence of 1 μM α-bungarotoxin or 100 μM nicotine or 10 μM MLA (methyllycaconitine).
The incubation is stopped by adding 4 ml of PBS (20 mM Na2HPO4, 5 mM KH2PO4, 150 mM NaCl, pH 7.4, 4° C.) and filtering through type A/E glass fiber filters (Gelman Sciences) which have previously been placed in 0.3%. (v/v) polyethyleneimine (PEI) for 3 h. The filters are washed twice with 4 ml of PBS (4° C.), and the bound radioactivity is determined by scintillation measurement. All the assays are carried out in triplicate. The dissociation constant Ki of the test substance was determined from the IC50 of the compounds (concentration of the test substance at which 50% of the ligand bound to the receptor is displaced), the dissociation constant KD and the concentration L of [^3H]-methyllycaconitine using the equation Ki=IC50/(1+L/KD).
For O=C(CC1CN2CCC1CC2)Nc1cc2cccc(Br)c2s1 (stereo not shown) [Example 1, 2-(1-Azabicyclo[2.2.2]oct-3-yl)-N-(7-bromo-1-benzothien-2-yl)acetamide hydrochloride], the pKi was 6.92.
For O=C(CC1CN2CCC1CC2)Nc1ccc2cccnc2c1 (stereo not shown) [Example 3, 2-(1-Azabicyclo[2.2.2]oct-3-yl)-N-(7-quinolinyl)acetamide hydrochloride], the pKi was 6.55.
With O=C(CC1CN2CCC1CC2)Nc1ccc2cccc([N+](=O)[O-])c2c1 (stereo not shown) [Example 5, 2-(1-Azabicyclo[2.2.2]oct-3-yl)-N-(8-nitro-2-naphthyl)acetamide hydrochloride] the pKi was 6.77.
With O=C(CC1CN2CCC1CC2)Nc1ccc2ccccc2c1 (stereo not shown) [Example 4, 2-(1-Azabicyclo[2.2.2]oct-3-yl)-N-(2-naphthyl)acetamide hydrochloride] the pKi was 7.38.
